From patent publication US20070082883A1, “HIV protease inhibitors” (THE BOARD OF TRUSTEES OF THE UNIVERSITY OF ILLINOIS, priority 2002, published 2007) come the findings set out here.

The target in the test is T1, HIV-1 protease (Human immunodeficiency virus type 1 group M subtype B, UniProt P04585).
T1 construct: made in house; host or cells: E. coli BL21 (dE3)pLysS, pET30a vector
The test is described as follows: HIV-1 Protease Inhibition Assay. The test is classed as biochemical. To be noted: fluorogenic substrate assay. The source says: Assays of the dose-response effect of inhibitor compounds can be described as a curve expressing a degree of inhibition as a function of concentration. The curve theoretically passes through a point at which the concentration is sufficient to reduce activity of the HIV protease enzyme to a level that is 50% that of the difference between minimal and maximal enzyme activity in the assay.
HIV-1 Protease Inhibition Assay
The HIV-1 protease gene was subcloned into the pET30a vector (Novagen) and then transformed into BL21 (dE3)pLysS cells for protein expression. Protein expression and purification were followed according to Tang's procedure (Hong et al., Biochemistry, 1996, 35, 10627-10633). […] The inclusion body containing some bacterial proteins was thoroughly washed by using TRITON X-100, solubilized in […] and passed through the Q-sepharose column to remove the bacterial proteins which interfered with subsequent refolding steps. HIV-1 protease was refolded from the urea to an active form by dialysis. As a final step, gel filtration chromatography was used to remove impurities after refolding. Activities of purified HIV-1 protease were examined using a fluorogenic substrate, 2-aminobenzoyl-Thr-Ile-Nle-Phe(pNO2)-Gln-Arg-NH2 (Novabiochem). […] In the condition of So<<Km, v=Eo(kcat/Km)So, where Eo is the total enzyme concentration, and So is the substrate concentrate. […] Assays are carried out as described by Toth and Marshall (Toth et al., Int. J. Pept. Protein Res., 1990, 36, 544-50).
The molecule `CC(C)(C)NC(=O)[C@@H]1C[C@@H]2CCCC[C@@H]2CN1C[C@@H](O)[C@H](Cc1ccccc1)NC(=O)OC1CCCC12CCCO2` (single isomer, unassigned) [Compound 144] returned an IC50 of 40 nM.
Same read-out and setting: with `CC(C)(C)NC(=O)[C@@H]1C[C@@H]2CCCC[C@@H]2CN1C[C@@H](O)[C@H](Cc1ccccc1)NC(=O)OC1CCCC12CCCO2` (single isomer, unassigned) [Compound 145] the figure was 96 nM.
With `CC(C)CN(C[C@@H](O)[C@H](Cc1ccccc1)NC(=O)OC1CCCC12CCCO2)S(=O)(=O)c1cccc(O)c1` (stereo partly drawn) [Compound 75], the concentration for half-maximal inhibition (IC50) turned out to be 6.7 nM and affinity was put at a Ki of 2.1 nM.
For `CC(C)CN(C[C@@H](O)[C@H](Cc1ccccc1)NC(=O)OC1CC2CCO[C@@H]2C1)S(=O)(=O)c1cccc(O)c1` (stereo partly drawn) [Compound 79], in that order: 5.5 nM and 1.7 nM.
The molecule `CC(C)CN(C[C@@H](O)[C@H](Cc1ccccc1)NC(=O)OC1CC2CCO[C@@H]2C1)S(=O)(=O)c1ccc(OC2CCCCO2)c(OC2CCCCO2)c1` (stereo partly drawn) [Compound 87] returned an IC50 of 30 nM and a Ki of 9.3 nM.
For `CC(C)CN(C[C@@H](O)[C@H](Cc1ccccc1)NC(=O)OC1CC2CCO[C@@H]2C1)S(=O)(=O)c1cc(OC2CCCCO2)cc(OC2CCCCO2)c1` (stereo partly drawn) [Compound 99], in that order: 3.9 nM and 1.2 nM.
For `CC(C)CN(C[C@@H](O)[C@H](Cc1ccccc1)NC(=O)OC1CC2CCO[C@@H]2C1)S(=O)(=O)c1cc(O)cc(O)c1` (stereo partly drawn) [Compound 100], in that order: 247 nM and 77 nM.
In the case of `CC(C)CN(C[C@@H](O)[C@H](Cc1ccccc1)NC(=O)OC1CC2CCO[C@@H]2C1)S(=O)(=O)c1cccc(CO)c1` (stereo partly drawn) [Compound 113], the IC50 amounted to 4 nM.
For the molecule `CC(C)CN(C[C@@H](O)[C@H](Cc1ccccc1)NC(=O)OC1CO[C@H]2OCCC12)S(=O)(=O)c1cccc(CO)c1` (stereo partly drawn) [Compound 114], half-maximal inhibition (IC50) was put at 1.1 nM.
On to `Cc1ccc(S(=O)(=O)OCc2ccc(S(=O)(=O)N(CC(C)C)C[C@@H](O)[C@H](Cc3ccccc3)NC(=O)OC3CO[C@H]4OCCC34)cc2)cc1` (stereo partly drawn) [Compound 117], for which the IC50 amounted to 2.4 nM and the Ki amounted to 0.74 nM.
For `CC(C)CN(C[C@@H](O)[C@H](Cc1ccccc1)NC(=O)OC1CO[C@H]2OCCC12)S(=O)(=O)c1ccc(CN)cc1` (stereo partly drawn) [Compound 118], in that order: 2.7 nM and 0.9 nM.
For `CC(C)CN(C[C@@H](O)[C@H](Cc1ccccc1)NC(=O)OC1CO[C@H]2OCCC12)S(=O)(=O)c1cccc(/C=N/O)c1` (stereo partly drawn) [Compound 120], in that order: 2.4 nM and 0.74 nM.
`CC(C)CN(C[C@@H](O)[C@H](Cc1ccccc1)NC(=O)OC1CO[C@H]2OCCC12)S(=O)(=O)c1ccc(/C=C/CO)cc1` (stereo partly drawn) [Compound 121] came in with an IC50 of 3 nM.
`CC(C)CN(C[C@@H](O)[C@H](Cc1ccccc1)NC(=O)OC1CC2CCO[C@@H]2C1)S(=O)(=O)c1ccc(CN)cc1` (stereo partly drawn) [Compound 125] registered an IC50 of 3.5 nM and an inhibitory constant (Ki) of 1.1 nM.
For `CNCc1ccc(S(=O)(=O)N(CC(C)C)C[C@@H](O)[C@H](Cc2ccccc2)NC(=O)OC2CC3CCO[C@@H]3C2)cc1` (stereo partly drawn) [Compound 126], the half-inhibitory concentration (IC50) was 15 nM.
The molecule `CC(C)CN(C[C@@H](O)[C@H](Cc1ccccc1)NC(=O)OC1CC2CCO[C@@H]2C1)S(=O)(=O)c1ccc(CN(C)C)cc1` (stereo partly drawn) [Compound 127] returned an IC50 of 50 nM.
The molecule `CC(C)CN(C[C@@H](O)[C@H](Cc1ccccc1)NC(=O)OC1CC2CCO[C@@H]2C1)S(=O)(=O)c1ccc(C=NO)cc1` (stereo partly drawn) [Compound 128] came in with an IC50 of 1.7 nM and an inhibition constant (Ki) of 0.53 nM.
For `CC(C)CN(C[C@@H](O)[C@H](Cc1ccccc1)NC(=O)OC1CC2CCO[C@@H]2C1)S(=O)(=O)c1cccc(C=NO)c1` (stereo partly drawn) [Compound 129], inhibition was half-maximal at 2.9 nM (IC50) and the Ki is 0.9 nM.
`COCc1ccc(S(=O)(=O)N(CC(C)C)C[C@@H](O)[C@H](Cc2ccccc2)NC(=O)OC2CC3CCO[C@@H]3C2)cc1` (stereo partly drawn) [Compound 130] gave an IC50 of 0.8 nM.
Same read-out and setting: the same measure for `Cc1ccc(S(=O)(=O)N(CC(C)C)C[C@@H](O)[C@H](Cc2ccccc2)NC(=O)OC2CC3CCO[C@@H]3C2)cc1` (stereo partly drawn) [Compound 131]: 1.4 nM.
The molecule `CC(C)CN(C[C@@H](O)[C@H](Cc1ccccc1)NC(=O)OC1CC2CCO[C@@H]2C1)S(=O)(=O)c1cccc2cccnc12` (stereo partly drawn) [Compound 132] displayed a concentration for half-maximal inhibition (IC50) of 12 nM and a Ki of 3.7 nM.
The corresponding values for `CC(C)CN(C[C@@H](O)[C@H](Cc1ccccc1)NC(=O)OC1CC2CCO[C@@H]2C1)S(=O)(=O)Cc1ccccc1` (stereo partly drawn) [Compound 133] are 48 nM and 15 nM.
The molecule `CC(C)CN(C[C@@H](O)[C@H](Cc1ccccc1)NC(=O)OC1CC2CCO[C@@H]2C1)C(=O)c1cc(O)cc(O)c1` (stereo partly drawn) [Compound 134] registered a half-inhibitory concentration (IC50) of 3000 nM and an inhibition constant Ki of 931 nM.
Molecule `CC(C)CN(C[C@@H](O)[C@H](Cc1ccccc1)NC(=O)OC(C)(C)C)S(=O)(=O)c1ccc(CN2CCN(C)CC2)cc1` [Compound 137] showed an IC50 of 2100 nM.
In the case of `CC(C)CN(C[C@@H](O)[C@H](Cc1ccccc1)NC(=O)O[C@H]1CCOC1)S(=O)(=O)c1ccc(CN2CCN(C)CC2)cc1` [Compound 138], the 50% inhibitory concentration (IC50) was 270 nM.
`CC(C)CN(C[C@@H](O)[C@H](Cc1ccccc1)NC(=O)O[C@H]1CCOC1)S(=O)(=O)c1ccc(CN2CCOCC2)cc1` [Compound 139]: the half-inhibitory concentration (IC50) worked out at 968 nM.
Regarding `CC(C)(C)NC(=O)[C@@H]1C[C@@H]2CCCC[C@@H]2CN1C[C@@H](O)[C@H](Cc1ccccc1)NC(=O)OC1CC2CCO[C@@H]2C1` (stereo partly drawn) [Compound 143], the half-maximal inhibitory concentration (IC50) is 3 nM.
With `CC(C)(C)NC(=O)[C@@H]1C[C@@H]2CCCC[C@@H]2CN1C[C@@H](O)[C@H](Cc1ccccc1)NC(=O)O[C@H]1CCC2(CCCO2)C1` (stereo partly drawn) [Compound 145a], the IC50 was found to be 500 nM.
Same read-out and setting: with `CC(C)(C)NC(=O)[C@@H]1C[C@@H]2CCCC[C@@H]2CN1C[C@@H](O)[C@H](Cc1ccccc1)NC(=O)OC1CC[C@@]2(CCCO2)C1` (stereo partly drawn) [Compound 145b] the figure was above 2000 nM.
On to `COc1ccc(S(=O)(=O)N(CC(C)C)C[C@@H](O)[C@H](Cc2ccccc2)NC(=O)OC2CC[C@@]3(CCCO3)C2)cc1` (stereo partly drawn) [Compound 145c], for which half-maximal inhibition (IC50) was put at 15 nM.
The same measure, in the same setting: the same measure for `COc1ccc(S(=O)(=O)N(CC(C)C)C[C@@H](O)[C@H](Cc2ccccc2)NC(=O)O[C@H]2CC[C@]3(CCCO3)C2)cc1` [Compound 145d]: 4.6 nM; for `Cc1ccc(S(=O)(=O)N(CC(C)C)C[C@@H](O)[C@H](CC2CCN(C(=O)c3ccccc3)CC2)NC(=O)OC2CO[C@H]3OCCC23)cc1` (stereo partly drawn) [Compound 146]: 1.8 nM.
On to `Cc1ccc(S(=O)(=O)N(CC(C)C)C[C@@H](O)[C@H](CC2CCN(C(=O)c3ccccc3)CC2)NC(=O)O[C@H]2CCOC2)cc1` [Compound 147], for which the midpoint of inhibition, the IC50, lay at 60 nM. This IC50 lies about 33-fold higher than the previous one.
On the same count and under the same terms, the same measure for `Cc1ccc(S(=O)(=O)N(CC(C)C)C[C@@H](O)[C@H](CC2CCN(C(=O)c3ccccc3)CC2)NC(=O)OC2CCCC23CCCO3)cc1` (stereo partly drawn) [Compound 148]: 185 nM; for `Cc1ccc(S(=O)(=O)N(CC(C)C)C[C@@H](O)[C@H](CC2CCN(Cc3ccccc3)CC2)NC(=O)OC2CO[C@H]3OCCC23)cc1` (stereo partly drawn) [Compound 149]: 20 nM; for `Cc1ccc(S(=O)(=O)N(CC(C)C)C[C@@H](O)[C@H](CC2CCN(Cc3ccccc3)CC2)NC(=O)O[C@H]2CCOC2)cc1` [Compound 150]: 540 nM.
`CC(C)CN(C[C@@H](O)[C@H](Cc1ccccc1)NC(=O)OC1CO[C@H]2OCCC12)S(=O)(=O)c1ccc(Cl)c(O)c1` (stereo partly drawn) [Compound 151]: half-maximal inhibition (IC50) required 3.1 nM and the Ki came to 1 nM.
Take `CC(C)CN(C[C@@H](O)[C@H](Cc1ccccc1)NC(=O)OC1CC2CCO[C@@H]2C1)S(=O)(=O)c1ccc(Cl)c(O)c1` (stereo partly drawn) [Compound 152]: the IC50 was 5.2 nM and the affinity corresponds to a Ki of 1.8 nM.
On to `CC(C)CN(C[C@@H](O)[C@H](Cc1ccccc1)NC(=O)O[C@H]1CCOC1)S(=O)(=O)c1ccc(Cl)c(O)c1` [Compound 153], for which the IC50 was 3.6 nM and affinity was put at a Ki of 1.1 nM.
The corresponding values for `O=C(N[C@@H](Cc1ccccc1)[C@H](O)CN(CCN1CCOCC1)S(=O)(=O)c1ccc(Cl)c(O)c1)OC1CO[C@H]2OCCC12` (stereo partly drawn) [Compound 154] are 25 nM and 7.8 nM.
Take `O=C(N[C@@H](Cc1ccccc1)[C@H](O)CN(CCN1CCOCC1)S(=O)(=O)c1ccc(Cl)c(O)c1)OC1CC2CCO[C@@H]2C1` (stereo partly drawn) [Compound 155]: the 50% inhibitory concentration (IC50) amounted to 16 nM and the Ki worked out at 4.9 nM.
For the molecule `Cc1ccc(S(=O)(=O)N(CC(C)C)C[C@@H](O)[C@H](Cc2ccccc2)NC(=O)OC2CO[C@H]3OCCC23)cc1CO` (stereo partly drawn) [Compound 156], the 50% inhibitory concentration (IC50) was found to be 3.1 nM and the Ki was 0.97 nM.
The corresponding values for `Cc1ccc(S(=O)(=O)N(CC(C)C)C[C@@H](O)[C@H](Cc2ccccc2)NC(=O)OC2CC3CCO[C@@H]3C2)cc1CO` (stereo partly drawn) [Compound 157] are 2.8 nM and 0.87 nM.
In the case of `Cc1ccc(S(=O)(=O)N(CCN(C)C)C[C@@H](O)[C@H](Cc2ccccc2)NC(=O)OC2CO[C@H]3OCCC23)cc1CO` (stereo partly drawn) [Compound 158], half-maximal inhibition (IC50) required 105 nM and affinity was put at a Ki of 32 nM.

By IC50 is commonly meant the concentration that inhibits the measured activity by half. In general, Ki refers to the dissociation constant of the complex between target and ligand, obtained from inhibition or displacement. Read a low Ki as tighter binding.
